Source: patent US20230339896A1, “HPK1 INHIBITORS AND USES THEREOF” (QILU REGOR THERAPEUTICS INC., priority 2020, published 2023)

What was measured:
[1] = Metabolic stability in liver microsomes, human (HLM); assay type: in vitro ADME; conditions: 1 µM compound, NADPH; for half-life at 1 µM: human, liver microsomes, pH 7.4, 0.5 mg/mL protein, read-out: Metabolic Stability T½ (min), HLM
Description: (§1) This assay is for determining the stability of test compound in liver microsomes. The study will be conducted in accordance with International Bioethical Standards “World Medical Association Declaration of
(§2) Human, Sprague Dawley Rat, CD-1 mouse, Beagle Dog and Cynomolgus Monkey Liver Microsomes samples purchased from BD Gentest or RILD.
(§3) 0.1 M Potassium phosphate buffer, pH 7.4: • Buffer A: 1.0 L of 0.1 M monobasic Potassium Phosphate buffer containing 1.0 mM EDTA • Buffer B: 1.0 L of 0.1 M Dibasic Potassium Phosphate buffer containing 1.0 mM EDTA • Buffer C (K-phosphate buffer): 0.1 M Potassium Phosphate buffer, 1.0 mM EDTA, pH 7.4 by titrating 700 mL of buffer B with buffer A while monitoring the pH meter
(§4) • Prepare 3× test compound or positive control solutions: 500 µM spiking solution: add 10 µL of 10 mM DMSO stock solution into 190 µL ACN. • 1.5 µM spiking solution in microsomes (0.75 mg/mL): add 1.5 µL of 500 µM spiking solution and 18.75 µL of 20 mg/mL liver microsomes into 479.75 µL of K-phosphate buffer.
(§5) Add 30 µL of 1.5 µM spiking solution containing 0.75 mg/ml microsomes solution to the wells designated for 45 min, 30 min, 15 min, 5 min and 0 min. Pre-incubate the plate at 37° C. for 5 minutes.
(§6) Add 15 µL of NADPH stock solution (6 mM) to all of the wells, and start timing. Immediately, add 135 µL of ACN containing IS to the wells designated as Time 0.
(§7) At 5 min, 15 min, 30 min and 45 min, add 135 µL of ACN containing IS to the wells, respectively.
(§8) After quenching, centrifuge the reaction mixtures at 3220 x g for 10 min.
(§9) Transfer 50 µL of the supernatant from each well into a 96-well sample plate containing 50 µL of ultra pure water (Millipore) for LC/MS analysis.
(§10) The % parent remaining at each incubation time point is calculated by comparing to the peak area ratio (compound peak area/internal standard peak area) at T0 (0 minute incubation). The ln peak area ratio is plotted against time and the gradient of the line is determined. The half-life and metabolism of compounds is calculated based upon a natural log linear regression of the relative peak areas vs time. The half-life and intrinsic clearance (Clint) in microsomes are calculated using the equations below. • In Vitro T ½ (min) = 0.693/Elimination rate of constant (k) • Clint (µL/min/mg of microsomal protein) = (0.693 / In Vitro T ½) (Incubation Volume/ mg of microsomes)

[2] = Metabolic stability in liver microsomes, rat (RLM); assay type: in vitro ADME, Sprague Dawley Rat; conditions: 1 µM compound, NADPH; for half-life at 1 µM: Sprague Dawley, rat, liver microsomes, pH 7.4, 0.5 mg/mL protein, read-out: Metabolic Stability T½ (min), RLM
Description: as §1, §2, §3, §4, §5, §6, §7, §8, §9, §10

[3] = Metabolic stability in liver microsomes, mouse (MLM); assay type: in vitro ADME, CD-1 mouse; conditions: 1 µM compound, NADPH; for half-life at 1 µM: CD-1, mouse, liver microsomes, pH 7.4, 0.5 mg/mL protein, read-out: Metabolic Stability T½ (min), MLM
Description: as §1, §2, §3, §4, §5, §6, §7, §8, §9, §10

Compound	half-life at 1 µM [1] [min]	half-life at 1 µM [2] [min]	half-life at 1 µM [3] [min]	Metabolic Stability T½ (min), HLM ([1]; 0.5 mg/mL protein)	Metabolic Stability T½ (min), RLM ([2]; 0.5 mg/mL protein)	Metabolic Stability T½ (min), MLM ([3]; 0.5 mg/mL protein)
CN1CCc2cc(F)c(Nc3ncc(Cl)c(N4C[C@](C)(CC(=O)O)c5ccccc54)n3)cc2C1 (single isomer, unassigned) [Example 5, (R)-2-[1-[5-chloro-2-[(6-fluoro-2-methyl-3,4-dihydro-1H-isoquinolin-7-yl)amino]pyrimidin-4-yl]-3-methyl-indolin-3-yl]acetic acid or (S)-2-[1-[5-chloro-2-[(6-fluoro-2-methyl-3,4-dihydro-1H-isoquinolin-7-yl)amino]pyrimidin-4-yl]-3-methyl-indolin-3-yl]acetic acid]				HLM: 68 min	RLM: 23 min	MLM: 86 min
COc1cc2c(cc1Nc1ncc(Cl)c(N3CC(C(=O)O)c4ccccc43)n1)CN(C)CC2 (stereo not shown) [Compound 7, reference compound]	237	4260	> 5000			
COc1cc2c(cc1Nc1ncc(Cl)c(N3CC(CC(=O)O)c4ccccc43)n1)CN(C)CC2 (stereo not shown) [Compound 8, reference compound]	145	48.2	145			
CN1CCc2cc(F)c(Nc3ncc(Cl)c(N4CC(C)(CC(=O)O)c5ccccc54)n3)cc2C1 (stereo not shown) [Example 4, 2-(1-(5-chloro-2-((6-fluoro-2-methyl-1,2,3,4-tetrahydroisoquinolin-7-yl)amino)pyrimidin-4-yl)-3-methylindolin-3-yl)acetic acid]	110		79.4			

Other lines, results leading:

half-life at 1 µM [1] [min]	half-life at 1 µM [2] [min]	half-life at 1 µM [3] [min]	Metabolic Stability T½ (min), HLM ([1]; 0.5 mg/mL protein)	Metabolic Stability T½ (min), RLM ([2]; 0.5 mg/mL protein)	Metabolic Stability T½ (min), MLM ([3]; 0.5 mg/mL protein)	Compound
90.8	38.4	101				COc1cc2c(cc1Nc1ncc(Cl)c(N3CC(C)(CC(=O)O)c4ccccc43)n1)CN(C)CC2 (single isomer, unassigned) [Example 2, (R)-2-(1-(5-chloro-2-((6-methoxy-2-methyl-1,2,3,4-tetrahydroisoquinolin-7-yl)amino)pyrimidin-4-yl)-3-methylindolin-3-yl)acetic acid or (S)-2-(1-(5-chloro-2-((6-methoxy-2-methyl-1,2,3,4-tetrahydroisoquinolin-7-yl)amino)pyrimidin-4-yl)-3-methylindolin-3-yl)acetic acid]
51	17	46.1				COc1cc2c(cc1Nc1ncc(Cl)c(N3CC(C)(CC(=O)O)c4ccc(F)cc43)n1)CN(C)CC2 (stereo not shown) [Compound 10, reference compound]
54.4		84				COc1cc2c(cc1Nc1ncc(Cl)c(N3CC(C)(CC(=O)O)c4ccccc43)n1)CN(C)CC2 (stereo not shown) [Example 1, 2-(1-(5-chloro-2-((6-methoxy-2-methyl-1,2,3,4-tetrahydroisoquinolin-7-yl)amino)pyrimidin-4-yl)-3-methylindolin-3-yl)acetic acid]
